The values below come from patent US20070249603A1, “3-Arylsulfonyl-Quinolines as 5-Ht6 Receptor Antagonists for the Treatment of Cns Disorders” (priority 2004, published 2007).

The assay concerns the target T1, human cloned 5-HT6 receptors (Homo sapiens, UniProt P50406).
T1 construct: expressed in transfected cells; host or cells: HeLa cells expressing cloned 5-HT6 receptor (membranes)
Put plainly: Cyclase assay (cAMP production in membranes of HeLa 5HT6 cells, antagonism of 5-HT). The class given is biochemical. The settings on record: antagonist potency, 5-HT at 4×EC50, functional Ki by Cheng-Prusoff from IC50, read-out: fpKi (negative log10 of the molar functional Ki) (converted). As for the experimental part:
Compounds of the invention may be tested for in vitro biological activity in accordance with the following cyclase assay:
0.5 μl of test compound in 100% dimethylsulfoxide (DMSO) was added to a white, solid 384 well assay plate (for dose response measurements the top of the concentration range is 7.5 μM final). […]
cAMP production was then measured using the DiscoveRx™ HitHunter™ chemiluminescence cAMP assay kit (DiscoveRx Corporation, 42501 Albrae Street, Fremont, Calif. 94538; Product Code: 90-0004L) or any other suitable cAMP measurement assay.
IC50 values were estimated from arbitrary designated unit (ADU) measurements from a Perkin Elmer Viewlux instrument using a four parameter logistic curve fit within EXCEL (Bowen, W. P. and Jerman, J. C. (1995), Nonlinear regression using spreadsheets. Trends in Pharmacol. Sci., 16, 413-417). Functional Ki values were calculated using the method of Cheng, Y. C. and Prussof, W. H. (Biochemical Pharmacol (1973) 22 3099-3108). pI50 and fpKi are the negative log10 of the molar IC50 and functional Ki respectively.

Where a name gives a salt, the structure may show the parent alone.

T1 sequence (P50406 whole entry): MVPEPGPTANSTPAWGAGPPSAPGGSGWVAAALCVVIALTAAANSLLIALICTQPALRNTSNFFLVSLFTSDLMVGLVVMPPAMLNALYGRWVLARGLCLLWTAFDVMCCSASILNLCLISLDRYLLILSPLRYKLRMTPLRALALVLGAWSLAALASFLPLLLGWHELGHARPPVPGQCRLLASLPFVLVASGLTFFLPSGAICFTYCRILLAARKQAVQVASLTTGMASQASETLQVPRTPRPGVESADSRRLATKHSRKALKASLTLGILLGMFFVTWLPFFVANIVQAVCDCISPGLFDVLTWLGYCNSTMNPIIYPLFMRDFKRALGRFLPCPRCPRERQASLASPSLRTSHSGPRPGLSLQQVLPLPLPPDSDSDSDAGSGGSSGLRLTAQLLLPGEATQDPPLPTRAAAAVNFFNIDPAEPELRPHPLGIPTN

For orientation: Ki means a dissociation constant, usually derived from enzyme kinetics or from competition with a known ligand. As for `CN(C)C1CCN(c2ccc(I)c3cc(S(=O)(=O)c4ccccc4)cnc23)CC1` [Example 13, 1-[5-Iodo-3-(phenylsulfonyl)-8-quinolinyl]-N,N-dimethyl-4-piperidinamine hydrochloride], the Ki was 158 nM.
